Experimental data reported in patent US12370143B2, “Compound or salt thereof and lipid particles” (FUJIFILM Corporation, priority 2018, dated 2025).

Experiments:
[1] = Nucleic acid encapsulation rate of nucleic acid lipid particles (FVII-siRNA); format: physicochemical
Outline: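 Total nucleic acid was measured by adding 30 μL of 3 mol/L sodium acetate and 9 μL of glycogen to 60 μL of FVII-siRNA lipid particles, then precipitating with 1.5 mL ethanol, centrifuging, air-drying, redissolving in water, and reading on a Nanodrop. Outer-phase nucleic acid came from a RiboGreen assay (ex 485 nm, em 535 nm) on samples diluted 10,000× in 1×TE. Encapsulation (%) = (total − outer)/total × 100.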

[2] = Particle size of nucleic acid lipid particles (FVII-siRNA); format: physicochemical
Outline: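 Lipid particles formed by micromixing ethanolic ionizable lipid/DSPC/cholesterol/DMG-PEG2000 (50/10/38.5/1.5 mol) with siRNA in pH 4 acetate buffer (3:1 water:oil), diluted with PBS and dialysed against PBS.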

[3] = Encapsulation rate of siRNA in nucleic acid lipid particles (Luc2-siRNA); format: physicochemical; conditions: compound/DSPC/cholesterol/DMG-PEG2000 50/10/38.5/1.5
Outline: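 Encapsulation rate was calculated as (total − outer-phase siRNA)/total ×100. Total siRNA was quantified spectrophotometrically after lipid-dissolving ethanol precipitation, and unencapsulated siRNA by RiboGreen in TE (ex 485/em 535 nm). The particles were test lipid/DSPC/cholesterol/DMG-PEG2000 at 50/10/38.5/1.5, formed by microfluidic mixing with Luc2-siRNA at pH 4 and dialyzed against PBS.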

[4] = system: DMS273 cells constantly expressing Luc; test: Target reporter protein (Luc) knockdown in cell, reporter protein assay; format: cell-based; conditions: Homo sapiens, DMS-273; Luc2-siRNA lipid particles using the compound; siRNA 0.1 to 100 nmol/L; concentration at which Luc expression is knocked down to 50%; read-out: IC50
Outline: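 Nucleic acid lipid particles added at final 0.1 to 100 nmol/L to DMS273 human SCLC cells stably expressing Luc2, 24 hr exposure then 24 hr further culture after medium change. Luc quantified by Steady Glo luminescence after viable cell count; knockdown efficiency calculated and IC50 taken as concentration giving 50% Luc reduction.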

[5] = system: Factor VII (FVII) protein; test: Measurement of Factor VII (FVII) protein in mouse plasma after FVII-siRNA lipid particles; format: in vivo, C57BL6/J mice; conditions: 0.1 mg/kg caudal vein, plasma 24 hours after administration, PBS group = 100%
Outline: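 C57BL6/J mice (n=3) received FVII-siRNA nucleic acid lipid particles at 0.1 mg/kg into the tail vein; controls got PBS. Each value is the percentage of the PBS-group FVII level.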

[6] = Particle size of nucleic acid lipid particles (Luc2-siRNA); format: physicochemical; conditions: compound/DSPC/cholesterol/DMG-PEG2000 50/10/38.5/1.5
Outline: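 Particle size was read by ELS-Z2 light scattering on nucleic acid lipid particles after dialysis against PBS. These were made by micromixing Luc2-siRNA (19.7 μmol/L, pH 4 acetate) with ethanolic lipids (test lipid/DSPC/cholesterol/DMG-PEG2000 50/10/38.5/1.5, 20 mmol/L) at 3:1 water:oil, siRNA/lipid 339 mol/mol.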

SMILES | Nucleic acid encapsulation rate [1] [%] | Particle size (nm) [2] [nm] | Nucleic acid encapsulation rate [3] [%] | IC50 [4] [nM] | Particle size (nm) [6] [nm] | Relative amount of FVII protein (%) [5] [%]
CCCCCCCCC(=O)OCCN(CCOC(=O)OC(CCCCCC)CCCCCCCCC(=O)OCC(CCCC)CCCCCC)CCN(CC)CC (stereo not drawn) [Example 103, 2-Butyloctyl 3-ethyl-12-hexyl-6-(2-(nonanoyloxy)ethyl)-10-oxo-9,11-dioxa-3,6-diazahenicosan-21-oate] | 79 | 69.8 | 80 | 14 | 64.3 | 2
CCCCCCC(=O)OCCN(CCOC(=O)OC(CCCCCC)CCCCCCCCC(=O)OCC(CCCC)CCCCCC)CCN(CC)CC (stereo not drawn) [Example 104, 2-Butyloctyl 3-ethyl-6-(2-(heptanoyloxy)ethyl)-12-hexyl-10-oxo-9,11-dioxa-3,6-diazahenicosan-21-oate] | 69 | 85.8 | 81 | 4 | 76.6 | 1
CCCCCCC(CCCC)COC(=O)CCCCCCCCC(CCCCCC)OC(=O)OCCN(CCOC(=O)CCCCC)CCN(CC)CC (stereo not drawn) [Example 105, 2-Butyloctyl 3-ethyl-6-(2-(hexanoyloxy)ethyl)-12-hexyl-10-oxo-9,11-dioxa-3,6-diazahenicosan-21-oate] | 73 | 102.4 | 81 | 28 | 100 | 7
CCCCCCCCCCCC(=O)OCCN(CCOC(=O)OC(CCCCCC)CCCC(=O)OCC(CCCC)CCCCCC)CCN(CC)CC (stereo not drawn) [Example 106, 2-Butyloctyl 6-(2-(dodecanoyloxy)ethyl)-3-ethyl-12-hexyl-10-oxo-9,11-dioxa-3,6-diazahexadecan-16-oate] | 85 | 66.4 | 80 | 37 | 62.4 | 2
CCCCCCCCCC(=O)OCCN(CCOC(=O)OC(CCCCCC)CCCC(=O)OCC(CCCC)CCCCCC)CCN(CC)CC (stereo not drawn) [Example 107, 2-Butyloctyl 6-(2-(decanoyloxy)ethyl)-3-ethyl-12-hexyl-10-oxo-9,11-dioxa-3,6-diazahexadecan-16-oate] | 83 | 70.6 | 78 | 23 | 64.8 | 1
CCCCCCCCCCCC(=O)OCCN(CCOC(=O)OC(CCCCCC)CCCC(=O)OCC(CCCCCC)CCCCCCCC)CCN(CC)CC (stereo not drawn) [Example 109, 2-Hexyldecyl 6-(2-(dodecanoyloxy)ethyl)-3-ethyl-12-hexyl-10-oxo-9,11-dioxa-3,6-diazahexadecan-16-oate] | 86 | 62.7 | 91 | 26 | 65.7 | 3
CCCCCCCCCC(=O)OCCN(CCOC(=O)OC(CCCCCC)CCCC(=O)OCC(CCCCCC)CCCCCCCC)CCN(CC)CC (stereo not drawn) [Example 110, 2-Hexyldecyl 6-(2-(decanoyloxy)ethyl)-3-ethyl-12-hexyl-10-oxo-9,11-dioxa-3,6-diazahexadecan-16-oate] | 85 | 66.1 | 87 | 17 | 60.7 | 2
CCCCCCCCC(CCCCCC)COC(=O)CCCC(CCCCCC)OC(=O)OCCN(CCOC(=O)CCCCCCC)CCN(CC)CC (stereo not drawn) [Example 111, 2-Hexyldecyl 3-ethyl-12-hexyl-6-(2-(octanoyloxy)ethyl)-10-oxo-9,11-dioxa-3,6-diazahexadecan-16-oate] | 88 | 70.5 | 93 | 42 | 63.9 | 2

The next lines start with results.

Nucleic acid encapsulation rate [1] [%] | Particle size (nm) [2] [nm] | Nucleic acid encapsulation rate [3] [%] | IC50 [4] [nM] | Particle size (nm) [6] [nm] | SMILES | Relative amount of FVII protein (%) [5] [%]
100 | 74.2 | 79 | 18 | 68.6 | CCCCCCCCCCC(CCCCCCCC)COC(=O)CCCC(CCCCCC)OC(=O)OCCN(CCN(CC)CC)C(C)C (stereo not drawn) [Example 112, 2-Octyldodecyl 3-ethyl-12-hexyl-6-isopropyl-10-oxo-9,11-dioxa-3,6-diazahexadecan-16-oate] | 3
100 | 66.1 | 82 | 21 | 67.8 | CCCCCCCCCCCCC(CCCCCCCCCC)COC(=O)CCCC(CCCCCC)OC(=O)OCCN(CCN(CC)CC)C(C)C (stereo not drawn) [Example 113, 2-Decyltetradecyl 3-ethyl-12-hexyl-6-isopropyl-10-oxo-9,11-dioxa-3,6-diazahexadecan-16-oate] | 4
64 | 80.5 | 90 | 35 | 93.6 | CCCCCCCC/C=C\CCCCCCCC(=O)OCCN(CCOC(=O)OC(CCCCCC)CCCCCCCCC(=O)OCC(CCCCCC)CCCCCCCC)CCN(CC)CC (stereo not drawn) [Example 118, 2-Hexyldecyl 3-ethyl-12-hexyl-6-(2-(oleoyloxy)ethyl)-10-oxo-9,11-dioxa-3,6-diazahenicosan-21-oate] | 9
69 | 66.3 | 89 | 31 | 67.8 | CCCCCCCC/C=C\CCCCCCCC(=O)OCCN(CCOC(=O)OC(CCCCCC)CCCC(=O)OCC(CCCC)CCCCCC)CCN(CC)CC (stereo not drawn) [Example 119, 2-Butyloctyl 3-ethyl-12-hexyl-6-(2-(oleoyloxy)ethyl)-10-oxo-9,11-dioxa-3,6-diazahexadecan-16-oate] | 5
66 | 68.1 | 90 | 27 | 66.5 | CCCCCCCC/C=C\CCCCCCCC(=O)OCCN(CCOC(=O)OC(CCCCCC)CCCC(=O)OCC(CCCCCC)CCCCCCCC)CCN(CC)CC (stereo not drawn) [Example 120, 2-Hexyldecyl 3-ethyl-12-hexyl-6-(2-(oleoyloxy)ethyl)-10-oxo-9,11-dioxa-3,6-diazahexadecan-16-oate] | 6
70 | 65.8 | 91 | 39 | 63.2 | CCCCCCCCCCC(CCCCCCCC)COC(=O)CCCCCCCCC(CCCCCC)OC(=O)OCCN(CCN(CC)CC)C(C)C (stereo not drawn) [Example 121, 2-Octyldodecyl 3-ethyl-12-hexyl-6-isopropyl-10-oxo-9,11-dioxa-3,6-diazahenicosan-21-oate] | 10
84 | 80.7 | 83 | 19 | 69.5 | CCCCCCCOC(=O)CCN(CCOC(=O)OC(CCCCCC)CCCCCCCCC(=O)OCC(CCCC)CCCCCC)CCN(CC)CC (stereo not drawn) [Example 122, 2-Butyloctyl 3-ethyl-6-(3-(heptyloxy)-3-oxopropyl)-12-hexyl-10-oxo-9,11-dioxa-3,6-diazahenicosan-21-oate] | 3
58 | 76.4 | 63 | 41 | 70.2 | CCCCCCCC(=O)OCCN(CCOC(=O)OC(CCCCCC)CCCCCCCCC(=O)OCC(CCCCC)CCCCC)CCN(CC)CC (stereo not drawn) [Example 129, 2-Pentylheptyl 3-ethyl-12-hexyl-6-(2-(octanoyloxy)ethyl)-10-oxo-9,11-dioxa-3,6-diazahenicosan-21-oate] | 4
